The values below come from patent USRE47351E1 (Gilead Sciences, Inc., priority 1999, dated 2019).

A value given as a limit tells only on which side of the number the result lay.

For test [1], the system named is A2A AdoR. In words: Coronary blood flow and reversal time in open-chest anesthetized pigs.
Description: Farm pigs weighing 22-27 kg were used in this study.
Anesthesia was anesthetized with ketamine (20 mg/kg, i.m.) and sodium pentobarbital (15-18 mg/kg i.v.). Anesthesia was maintained with additional sodium pentobarbital (1.5-2 mg/kg, i.v.) every 15-20 minutes. Ventilation was maintained via a tracheotomy using a mixture of room air and 100% O2. Tidal volume, respiratory rate and fraction of O2 in inspired air were adjusted to maintain normal arterial blood gas (ABG) and pH values. […] Lactate Ringers solution was administered via an ear or femoral vein, at 5-7 ml/kg/min after a initial bolus of 300-400 ml. A catheter was inserted into the femoral artery to monitor arterial blood pressure and to obtain ABG samples.
The heart was exposed through a median stemotomy, and suspended in a pericardial cradle. Left ventricular pressure (LVP) was measured with a 5F high fidelity pressure sensitive tip transducer (Millar Instrunents, Houston, Tex.) placed in the left ventricular cavity via the apex and secured with a purse string suture. A segment of the left anterior descending coronary artery (LAD), proximal to the origin of the first diagonal branch, was dissected free of, surrounding tissue. A transit time perivascular flow probe (Transonic Systems Inc., Ithaca, N.Y.) was placed around this segment to measure coronary blood flow (CBF). Proximal to the flow probe a 24 g modified angiocatheter was inserted for intracoronary infusions. […] A2A AdoR agonists were dissolved in DMSO to produce stock concentrations of 1-5 mM, which were diluted in 0.9% saline and infused at rates of 1-1.5 ml/min. The A2A AdoR agonists were administered intracoronary. To maintain blood pressure constant, phenylephrine was administered intravenously. The phenylephrine stock solution (30 mM) was prepared in distilled water.
Prior to initiating the experiment, a 30-minute stabilization period followed the completion of all instrumentation. […] The time to recovery of 50% (t 0.5) and 90% (t0.9) of baseline CBF were recorded. Ten to 15 minutes after CBF returned to pre-drug values a second infusion with a different agonist was started. […] The effect of a maximum of three different agonists was determined in each experiment.
Test [2] deals with A1 AdoR (Rattus norvegicus (Rat), UniProt P25099). Briefly: A-V nodal conduction time (negative dromotropic effect) in rat isolated perfused hearts. To be noted: Compound 16 0.1-30 μM, CVT510 100-400 nM. On the procedure:
In experiments in which A1 adenosine receptor-mediated negative dromotropic effect was measured, atrial and ventricular surface electrograms were recorded during constant atrial pacing.
A1 adenosine receptor-mediated depression of A-V nodal conduction time (negative dromotropic effect) was measured. Atrial and ventricular surface electrograms in rats and His bundle electrogram in guinea pigs, were recorded during constant atrial pacing.
Hearts were instrumented for continuous recording of coronary perfusion pressure (A2A response) and atrioventricular (A-V) conduction time or S-H interval (A1 response).

For test [3], the target named is A2A receptor (Sus scrofa, UniProt K9IW67). In words: A2A receptor affinity in pig striatum membrane prep (tritiated ZM 241385 displacement). The class given is binding. To be noted: pig striatal membranes, displacement of tritiated ZM 241385 (2 nM), 23° C. 2 h; read-out: A2a Ki. How it is done: Compounds of this invention were assayed to determine their affinity for the A2A receptor in a pig striatum membrane prep. […]. To the pig membranes was added 2 μL of serially diluted DMSO stock solution of the compounds of this invention at concentrations ranging from 10 nM to 100 microM or the control received 2 microL of DMSO alone, then the antagonist ZM 241385 in Tris buffer (50 mM, pH of 7.4) was added to achieve a final concentration of 2 nM. After incubation at 23° C. for 2 h, then the solutions were filtered using a membrane harvester using multiple washing of the membranes (3×). The filter disks were counted in scintillation cocktail to determine the amount of displacement of tritiated ZM displaced by the compounds of this invention. Greater than a 5 point curve was used to generate Ki's and the number of experiments is indicated in the column marked in Table 1 below.
Chain of A2A receptor (K9IW67 1-409): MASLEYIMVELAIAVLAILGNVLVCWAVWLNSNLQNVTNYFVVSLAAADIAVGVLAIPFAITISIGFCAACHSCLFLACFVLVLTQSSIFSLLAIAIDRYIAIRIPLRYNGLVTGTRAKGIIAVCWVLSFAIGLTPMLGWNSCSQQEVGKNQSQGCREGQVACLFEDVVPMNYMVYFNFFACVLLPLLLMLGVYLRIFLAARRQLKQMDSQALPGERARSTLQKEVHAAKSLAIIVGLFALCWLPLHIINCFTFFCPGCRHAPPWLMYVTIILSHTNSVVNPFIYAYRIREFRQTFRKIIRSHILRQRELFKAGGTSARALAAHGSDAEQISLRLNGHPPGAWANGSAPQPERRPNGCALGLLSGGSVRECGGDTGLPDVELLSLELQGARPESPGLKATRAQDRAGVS

Test [4] concerns the target A2A adenosine receptor (Rattus norvegicus (Rat), UniProt P30543). In words: Reversal time of coronary vasodilation in rat isolated perfused hearts. The conditions noted are these: bolus injection.
Description: Adult Sprague Dawley rats of either sex weighing from 230 to 260 grams were used in this study. Animals were anesthetized by peritoneal injection of a cocktail containing ketamine and xylazine (ketamine 100 mg, xylazine 20 mg/ml). The chest was opened and the heart quickly removed. The heart was briefly rinsed in ice-cold Krebs-Henseleit solution (see below), and the aorta cannulated. […] The heart was electrically paced at a fixed cycle length of 340 ms (250 beats/min) using a bipolar electrode place on the left atrium. The electrical stimuli were generated by a Grass stimulator (Model S48, W. Warwick, R.I.) and delivered through a Stimuli Isolation Unit (Model SIU5, Astro-Med, Inc., N.Y.) as square-wave pulses of 3 msec in duration and amplitude of at least twice the threshold intensity.
Coronary perfusion pressure (CPP) was measured using a pressure transducer, connected to the aortic cannula via a T-connector positioned approximately 3 cm above the heart Coronary perfusion pressure was monitored throughout the experiment and recorded either on a chart recorder (Gould Recorder ^2200S) or a computerized recording system (PowerLab/4S, ADInstruments Pty Ltd, Australia). Only hearts with CPP ranging from 60 to 85 mmHg (in the absence of drugs) were used in the study.
Protocol A: Bolus injections. […] The times to 50% (t 0.5) and 90%/o (t 0.9) reversal of the decrease in CPP were measured. Each heart was exposed to a maximum of three vasodilators.
Protocol B: Continuous infusion. […] The times to 50% (t 0.5) and 90% (t 0.9) reversal of the decreases in CPP were measured from the time at which the infusion of the agonists was stopped. […] In addition, the duration of the injection was varied according to the volume of the boluses such as 10, 20 and 30 sec for 100, 200 and 300 μl boluses respectively. […] Boluses of various agonists were injected into the perfusion line of rat isolated perfused hearts (n=4 to 6 for each agonist) and the time to 90% (t0.9) reversal of the decrease in CPP measured.

Chain of A2A adenosine receptor (P30543 whole entry, the tested form may be a part): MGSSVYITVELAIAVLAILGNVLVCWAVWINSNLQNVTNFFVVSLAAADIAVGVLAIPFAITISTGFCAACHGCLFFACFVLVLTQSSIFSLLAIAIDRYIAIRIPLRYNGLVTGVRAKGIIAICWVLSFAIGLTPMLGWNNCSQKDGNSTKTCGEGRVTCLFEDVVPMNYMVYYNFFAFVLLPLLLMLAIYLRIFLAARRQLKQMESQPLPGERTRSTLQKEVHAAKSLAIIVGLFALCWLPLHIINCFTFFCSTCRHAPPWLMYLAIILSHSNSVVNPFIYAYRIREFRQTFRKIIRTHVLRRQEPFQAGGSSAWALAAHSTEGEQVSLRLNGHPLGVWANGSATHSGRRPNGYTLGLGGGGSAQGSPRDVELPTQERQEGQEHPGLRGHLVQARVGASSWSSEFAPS
Chain of A1 AdoR (P25099 whole entry, the tested form may be a part): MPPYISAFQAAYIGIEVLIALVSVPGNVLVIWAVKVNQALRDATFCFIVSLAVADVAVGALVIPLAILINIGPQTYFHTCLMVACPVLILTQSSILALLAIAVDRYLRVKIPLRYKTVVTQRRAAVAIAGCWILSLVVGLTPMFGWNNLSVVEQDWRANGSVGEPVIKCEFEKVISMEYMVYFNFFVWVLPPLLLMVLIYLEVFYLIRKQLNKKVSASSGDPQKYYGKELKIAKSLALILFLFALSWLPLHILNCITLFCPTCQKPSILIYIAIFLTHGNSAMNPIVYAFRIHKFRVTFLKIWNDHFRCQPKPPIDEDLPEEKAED

As for `CCNC(=O)[C@H]1O[C@@H](n2cnc3c(N)nc(NCCc4ccc(CCC(=O)O)cc4)nc32)[C@H](O)[C@@H]1O` [CGS21680], in test [1] (2 μg/kg/min), the “t 0.5 (min), time to 50% reversal of the increase in coronary blood flow” value was 9.7 ± 0.8 min and the “t 0.9 (min), time to 90% reversal of the increase in coronary blood flow” value was found to be 21.4 ± 0.8 min.

With `OC[C@H]1O[C@@H](n2cnc3c(N[C@@H]4CCOC4)ncnc32)[C@H](O)[C@@H]1O` [CVT510, 2-{6-[((3R)oxolan-3-yl)amino]purin-9-yl}(4S,3R,5R)-(hydroxymethyl)oxolane-3,4-diol, reference compound], the “Effect on A-V nodal conduction time” value in test [2] is reported as “significantly prolonged”. As a reminder, the Ki is the dissociation constant of the complex between target and ligand, obtained from inhibition or displacement. On to `CCOC(=O)c1cnn(-c2nc(N)c3ncn([C@@H]4O[C@H](CO)[C@@H](O)[C@H]4O)c3n2)c1` [Compound 12, Ethyl 1-{9-[(4S,2R,3R,5R)-3,4-dihydroxy-5-(hydroxymethyl)oxolan-2-yl]-6-aminopurin-2-yl}pyrazole-4-carboxylate], for which the Ki in test [3] was in the range of 10 to 1000 nM. In test [4], the “t 0.5 (min), time to 50% reversal of the increase in coronary conductance” value is listed as 14.83 ± 2.1 min and the “t 0.9 (min), time to 90% reversal of the increase in coronary conductance” value is on record as 15.0 ± 0.8 min. As to `COc1ccc(-c2cnn(-c3nc(N)c4ncn(C5O[C@H](CO)[C@@H](O)[C@H]5O)c4n3)c2)cc1` (stereo partly drawn) [Compound 14, (4S,2R,3R,5R)-2-{6-Amino-2-[4-(4-metboxyphenyl)pyrazolyl]purin-9-yl}-5-(hydroxymethyl)oxolane-3,4-diol], the Ki in test [3] was 1000 to 10000 nM.

Regarding `Cc1ccc(-c2cnn(-c3nc(N)c4ncn(C5O[C@H](CO)[C@@H](O)[C@H]5O)c4n3)c2)cc1` (some centres unmarked) [Compound 15], the Ki in test [3] lay in the range of 1000 to 10000 nM. As for `Nc1nc(-n2cc(C(=O)O)cn2)nc2c1ncn2[C@@H]1O[C@H](CO)[C@@H](O)[C@H]1O` [Compound 17, 1-{9-[(4S,2R,3R,5R)-3,4-dihydroxy-5-(hydroxymethyl)oxolan-2-yl]-6-aminopurin-2-yl}pyrazole-4-carboxylic acid], the Ki in test [3] was above 100000 nM. On the same count and under the same terms, with `CN(C)C(=O)c1cnn(-c2nc(N)c3ncn([C@@H]4O[C@H](CO)[C@@H](O)[C@H]4O)c3n2)c1` [Compound 18, (1-{9-[(4S,2R,3R,5R)-3,4-dihydroxy-5-(hydroxymethyl)oxolan-2-yl]-6-aminopurin-2-yl}pyrazol-4-yl)-N,N-dimethylcarboxamide] the figure was 10 to 1000 nM. The same measure, in the same setting: with `CCNC(=O)c1cnn(-c2nc(N)c3ncn(C4O[C@H](CO)[C@@H](O)[C@H]4O)c3n2)c1` (stereo partly drawn) [Compound 19, (1-{9-[(4S,2R,3R,5R)-3,4-dihydroxy-5-(hydrozymethyl)oxolan-2-yl]-6-aminopurin-2-yl}pyrazol-4-yl)-N-ethylcarboxamide] the figure was 10 to 1000 nM; with `NC(=O)c1cnn(-c2nc(N)c3ncn([C@@H]4O[C@H](CO)[C@@H](O)[C@H]4O)c3n2)c1` [Compound 20, 1-{9-[(4S,2R,3R,5R)-3,4-dihydroxy-5-(hydroxymethyl)oxolan-2-yl]-6-aminopurin-2-yl}pyrazole-4-carboxamide], 10 to 1000 nM. For the compound `Nc1nc(-n2cc(C(=O)NC3CCCC3)cn2)nc2c1ncn2[C@@H]1O[C@H](CO)[C@@H](O)[C@H]1O` [Compound 21, (1-{9-[(4S,2R,3R,5R)-3,4-dihydroxy-5-(hydroxymethyl)oxolan-2-yl]-6-aminopurin-2-yl}pyrazol-4-yl)-N-(cyclopentyl)carboxamide], in test [3], the Ki was 10 to 1000 nM. Still for that read-out and setting: with `Nc1nc(-n2cc(C(=O)NCc3ccc(Cl)cc3)cn2)nc2c1ncn2[C@@H]1O[C@H](CO)[C@@H](O)[C@H]1O` [Compound 22, (1-{9-[(4S,2R,3R,5R)-3,4-dihydroxy-5-(hydroxymethyl)oxolan-2-yl]-6-aminopurin-2yl}pyrazol-4yl)-N-[(4-chlorophenyl)methyl]carboxamide] the figure was 10 to 1000 nM.

For the compound `CCCCC#Cc1nc(N)c2ncn([C@@H]3O[C@H](C(=O)NCC)[C@@H](O)[C@H]3O)c2n1` [HENECA, N-ethyl-1′-deoxy-1′-(6-amino-2-hexynyl-9H-purin9-yl)-beta-D-ribofuranuronamide], in test [4], the “t 0.5 (min), time to 50% reversal of the increase in coronary conductance” value is 28.6 ± 1.1 min and the “t 0.9 (min), time to 90% reversal of the increase in coronary conductance” value was 32.8 ± 3.1 min. As for `Nc1nc(N/N=C/C2CCCCC2)nc2c1ncn2[C@@H]1O[C@H](CO)[C@@H](O)[C@H]1O` [WRC-0470, 2-cyclohexylmethylidenehydrazino-adenosine], in test [1] (1 μg/kg/min), the “t 0.5 (min), time to 50% reversal of the increase in coronary blood flow” value was 9.5 ± 0.8 min and the “t 0.9 (min), time to 90% reversal of the increase in coronary blood flow” value amounted to 22.5 ± 1.6 min. As for `CCCCCCC#Cc1nc(N)c2ncn([C@@H]3O[C@H](CO)[C@@H](O)[C@H]3O)c2n1` [YT-146, 2-alkynyladenosine], in test [1] (1 μg/kg/min), the “t 0.5 (min), time to 50% reversal of the increase in coronary blood flow” value amounted to 17.8 ± 3.4 min and the “t 0.9 (min), time to 90% reversal of the increase in coronary blood flow” value is 32.9 ± 5.6 min. Further, the “CBF (“Fold Increase”)” value in test [1] (1 μg/kg/min intracoronary infusion) is 3.44 ± 0.47 fold. In test [4], the “t 0.5 (min), time to 50% reversal of the increase in coronary conductance” value is recorded as 17.7 ± 1.0 min and the “t 0.9 (min), time to 90% reversal of the increase in coronary conductance” value worked out at 28.5 ± 4.0 min.
